Measured values taken from patent publication US20230340011A1 (Asteroid Therapeutics, priority 2022, published 2023).
pIC50: −log10 of the molar value.

Target: SREBP-2 (Homo sapiens (Human), UniProt Q12772)
Test: In vitro assay SREBP-2: PathHunter U2OS SREBP-2 Nuclear Translocation Cell Line, U18666A-stimulated
Assay type: cell-based
Settings: PathHunter U2OS SREBP-2 nuclear translocation cells, U18666A 10 μM, overnight (16 hours)

Compound	pIC50
C[C@H](Oc1cncc(CO)c1)[C@H]1CC[C@H]2[C@@H]3CC=C4C[C@@H](O)CC[C@]4(C)[C@H]3CC[C@]12C [Example 436, (3S,8S,9S,10R,13S,14S,17S)-17-((S)-1-((5-(hydroxymethyl)pyridin-3-yl)oxy)ethyl)-10,13-dim ethyl-2,3,4,7,8,9,10,11,12,13,14,15,16,17-tetradecahydro-1H-cyclopenta[a]phenanthren-3-ol]	6.00 to 6.60
C[C@H](Oc1cnccc1CO)[C@H]1CC[C@H]2[C@@H]3CC=C4C[C@@H](O)CC[C@]4(C)[C@H]3CC[C@]12C [Example 437, (3S,8S,9S,10R,13S,14S,17S)-17-((S)-1-((4-(hydroxymethyl)pyridin-3-yl)oxy)ethyl)-10,13-dim ethyl-2,3,4,7,8,9,10,11,12,13,14,15,16,17-tetradecahydro-1H-cyclopenta[a]phenanthren-3-ol]	6.00 to 6.60
CNC(=O)c1ccc(O[C@@H](C)[C@H]2CC[C@H]3[C@@H]4CC=C5C[C@@H](O)CC[C@]5(C)[C@H]4CC[C@]23C)cn1 [Example 438, 5-((S)-1-((3S,8S,9S,10R,13S,14S,17S)-3-hydroxy-10,13-dimethyl-2,3,4,7,8,9,10,11,12,13,14,15,16,17-tetradecahydro-1H-cyclopenta[a]phenanthren-17-yl)ethoxy)-N-methylpicolinamide]	6.00 to 6.60
Cc1cccc(OC[C@@H](C)[C@H]2CC[C@H]3[C@@H]4CC=C5C[C@@H](O)CC[C@]5(C)[C@H]4CC[C@]23C)n1 [Example 440, (1R,3aS,3bS,7S,9aR,9bS,11aS)-9a,11a-dimethyl-1-[(2S)-1-[(6-methylpyridin-2-yl)oxy]propan-2-yl]-1H,2H,3H,3aH,3bH,4H,6H,7H,8H,9H,9aH,9bH,10H,11H,11aH-cyclopenta[a]phenanthren-7-ol]	6.00 to 6.60
Cc1ccc(OC[C@@H](C)[C@H]2CC[C@H]3[C@@H]4CC=C5C[C@@H](O)CC[C@]5(C)[C@H]4CC[C@]23C)nc1 [Example 441, (3S,8S,9S,10R,13S,14S,17R)-10,13-dimethyl-17-((S)-1-((5-methylpyridin-2-yl)oxy)propan-2-yl)-2,3,4,7,8,9,10,11,12,13,14,15,16,17-tetradecahydro-1H-cyclopenta[a]phenanthren-3-ol]	6.00 to 6.60
Cc1ccnc(OC[C@@H](C)[C@H]2CC[C@H]3[C@@H]4CC=C5C[C@@H](O)CC[C@]5(C)[C@H]4CC[C@]23C)c1 [Example 442, (1R,3aS,3bS,7S,9aR,9bS,11aS)-9a,11a-dimethyl-1-[(2S)-1-[(4-methylpyridin-2-yl)oxy]propan-2-yl]-1H,2H,3H,3aH,3bH,4H,6H,7H,8H,9H,9aH,9bH,10H,11H,11aH-cyclopenta[a]phenanthren-7-ol]	> 6.60
Cc1cccnc1OC[C@@H](C)[C@H]1CC[C@H]2[C@@H]3CC=C4C[C@@H](O)CC[C@]4(C)[C@H]3CC[C@]12C [Example 443, (3S,8S,9S,10R,13S,14S,17R)-10,13-dimethyl-17-((S)-1-((3-methylpyridin-2-yl)oxy)propan-2-yl)-2,3,4,7,8,9,10,11,12,13,14,15,16,17-tetradecahydro-1H-cyclopenta[a]phenanthren-3-ol]	> 6.60
C[C@H](COc1cccc(CO)n1)[C@H]1CC[C@H]2[C@@H]3CC=C4C[C@@H](O)CC[C@]4(C)[C@H]3CC[C@]12C [Example 444, (3S,8S,9S,10R,13S,14S,17R)-17-((S)-1-((6-(hydroxymethyl)pyridin-2-yl)oxy)propan-2-yl)-10,13-dimethyl-2,3,4,7,8,9,10,11,12,13,14,15,16,17-tetradecahydro-1H-cyclopenta[a]phenanthren-3-ol]	> 6.60
C[C@H](COc1ccc(CO)cn1)[C@H]1CC[C@H]2[C@@H]3CC=C4C[C@@H](O)CC[C@]4(C)[C@H]3CC[C@]12C [Example 445, (3S,8S,9S,10R,13S,14S,17R)-17-((S)-1-((5-(hydroxymethyl)pyridin-2-yl)oxy)propan-2-yl)-10,13-dimethyl-2,3,4,7,8,9,10,11,12,13,14,15,16,17-tetradecahydro-1H-cyclopenta[a]phenanthren-3-ol]	6.00 to 6.60
C[C@H](COc1cc(CO)ccn1)[C@H]1CC[C@H]2[C@@H]3CC=C4C[C@@H](O)CC[C@]4(C)[C@H]3CC[C@]12C [Example 446, (3S,8S,9S,10R,13S,14S,17R)-17-((S)-1-((4-(hydroxymethyl)pyridin-2-yl)oxy)propan-2-yl)-10,13-dimethyl-2,3,4,7,8,9,10,11,12,13,14,15,16,17-tetradecahydro-1H-cyclopenta[a]phenanthren-3-ol]	> 6.60
CNC(=O)c1cccc(OC[C@@H](C)[C@H]2CC[C@H]3[C@@H]4CC=C5C[C@@H](O)CC[C@]5(C)[C@H]4CC[C@]23C)n1 [Example 448, 6-((S)-2-((3S,8S,9S,10R,13S,14S,17R)-3-hydroxy-10,13-dimethyl-2,3,4,7,8,9,10,11,12,13,14,15,16,17-tetradecahydro-1H-cyclopenta[a]phenanthren-17-yl)propoxy)-N-methylpicolinamide]	6.00 to 6.60
CNC(=O)c1ccc(OC[C@@H](C)[C@H]2CC[C@H]3[C@@H]4CC=C5C[C@@H](O)CC[C@]5(C)[C@H]4CC[C@]23C)nc1 [Example 449, 6-((S)-2-((3S,8S,9S,10R,13S,14S,17R)-3-hydroxy-10,13-dimethyl-2,3,4,7,8,9,10,11,12,13,14,15,16,17-tetradecahydro-1H-cyclopenta[a]phenanthren-17-yl)propoxy)-N-methylnicotinamide]	> 6.60
CNC(=O)c1ccnc(OC[C@@H](C)[C@H]2CC[C@H]3[C@@H]4CC=C5C[C@@H](O)CC[C@]5(C)[C@H]4CC[C@]23C)c1 [Example 450, 2-((S)-2-((3S,8S,9S,10R,13S,14S,17R)-3-hydroxy-10,13-dimethyl-2,3,4,7,8,9,10,11,12,13,14,15,16,17-tetradecahydro-1H-cyclopenta[a]phenanthren-17-yl)propoxy)-N-methylisonicotinamide]	> 6.60
CNC(=O)c1cccnc1OC[C@@H](C)[C@H]1CC[C@H]2[C@@H]3CC=C4C[C@@H](O)CC[C@]4(C)[C@H]3CC[C@]12C [Example 451, 2-((S)-2-((3S,8S,9S,10R,13S,14S,17R)-3-hydroxy-10,13-dimethyl-2,3,4,7,8,9,10,11,12,13,14,15,16,17-tetradecahydro-1H-cyclopenta[a]phenanthren-17-yl)propoxy)-N-methylnicotinamide]	> 6.60
C[C@H](CCc1ncccc1C(C)(C)O)[C@H]1CC[C@H]2[C@@H]3CC=C4C[C@@H](O)CC[C@]4(C)[C@H]3CC[C@]12C [Example 456, (3S,8S,9S,10R,13R,14S,17R)-17-((R)-4-(3-(2-hydroxypropan-2-yl)pyridin-2-yl)butan-2-yl)-10,13-dimethyl-2,3,4,7,8,9,10,11,12,13,14,15,16,17-tetradecahydro-1H-cyclopenta[a]phenanthren-3-ol]	> 6.60
CCOc1cccnc1CC[C@@H](C)[C@H]1CC[C@H]2[C@@H]3CC=C4C[C@@H](O)CC[C@]4(C)[C@H]3CC[C@]12C [Example 457, (1R,3aS,3bS,7S,9aR,9bS,11aR)-1-[(2R)-4-(3-ethoxypyridin-2-yl)butan-2-yl]-9a,11a-dimethyl-1H,2H,3H,3aH,3bH,4H,6H,7H,8H,9H,9aH,9bH,10H,11H,11aH-cyclopenta[a]phenanthren-7-ol]	> 6.60
